Source: ChEMBL document CHEMBL5223115, “A guanidinium group is an effective mimic of the tertiary carbocation formed by isopentenyl diphosphate isomerase” (Bioorg Med Chem Lett, 2022)

How the values were obtained:
[1] = target: T1, Isopentenyl-diphosphate Delta-isomerase (Escherichia coli (strain K12), UniProt Q46822); test: Inhibition of Escherichia coli IPP isomerase
T1 sequence (Q46822 whole entry): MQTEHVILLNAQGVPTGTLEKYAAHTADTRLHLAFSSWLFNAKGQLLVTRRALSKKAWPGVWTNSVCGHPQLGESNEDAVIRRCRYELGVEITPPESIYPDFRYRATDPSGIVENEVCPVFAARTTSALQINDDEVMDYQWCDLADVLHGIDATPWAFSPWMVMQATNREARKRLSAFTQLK

[2] = Binding affinity to IPP isomerase (unknown origin) assessed as dissociation constant; parameters: species or system Homo sapiens
[3] = target: T1, Isopentenyl-diphosphate Delta-isomerase; test: Binding affinity to Escherichia coli IPP isomerase assessed as inhibition constant
[4] = target: T1, Isopentenyl-diphosphate Delta-isomerase; test: Competitive inhibition of Escherichia coli IPP isomerase assessed as inhibition constant by Lineweaver-burk plot analysis

| IC50 [1] [µM] | SMILES | Kd [2] [µM] | Ki [3] [µM] | Ki [4] [µM] |
| --- | --- | --- | --- | --- |
| > 5000 | CN(C)CCCC(=O)NS(C)(=O)=O | – | – | – |
| 1200 | CS(=O)(=O)NC(=O)CCNC(=N)N | – | – | – |
| 670 | N=C(N)NCCC(=O)NO | – | – | – |

More lines, now with the values behind:

| SMILES | IC50 [1] [µM] | Kd [2] [µM] | Ki [3] [µM] | Ki [4] [µM] |
| --- | --- | --- | --- | --- |
| CN(C)CCCP(=O)(O)CP(=O)(O)O | 33 | – | – | – |
| NC(N)=NCP(=O)(O)CP(=O)(O)O | – | 1.2 | 0.12 | – |
| N=C(N)NCCP(=O)(O)CP(=O)(O)O | 0.7 | – | 0.129 | 0.129 |
